Key:
[1] = target: T1, rat α-2B (RNG gene) (Rattus norvegicus, UniProt P19328); test: RSAT assay, α-2B receptor; assay type: cell-based; details: for EC50: NA = not active (EC50 ≧ 10,000); for fold greater activity at the α-2B receptor than the α-2C receptor: RSAT; for Emax: read-out: % efficacy 2B
T1 construct: expressed in transfected cells; host or cells: NIH-3T3
T1 sequence (P19328 1-453): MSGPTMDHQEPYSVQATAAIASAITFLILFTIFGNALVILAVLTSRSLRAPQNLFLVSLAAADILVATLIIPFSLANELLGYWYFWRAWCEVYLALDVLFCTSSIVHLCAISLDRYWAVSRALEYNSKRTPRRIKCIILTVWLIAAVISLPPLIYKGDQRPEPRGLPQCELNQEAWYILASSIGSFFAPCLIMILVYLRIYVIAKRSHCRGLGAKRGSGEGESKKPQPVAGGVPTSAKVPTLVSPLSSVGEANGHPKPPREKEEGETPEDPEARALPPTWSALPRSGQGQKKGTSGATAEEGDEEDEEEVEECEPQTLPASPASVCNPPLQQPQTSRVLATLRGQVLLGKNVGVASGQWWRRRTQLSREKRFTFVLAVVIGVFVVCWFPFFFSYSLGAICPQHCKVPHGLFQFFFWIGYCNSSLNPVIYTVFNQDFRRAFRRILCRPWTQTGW
Description: (§1) Agonist and antagonist activity, including selectivity and specificity, can be characterized using any of a variety of routine assays, including, without limitation, Receptor Selection and Amplification Technology (RSAT) assays (Messier et al., Pharmacol. Toxicol. 76:308-11 (1995); Conklin et al., Nature 363:274-6 (1993)); cyclic AMP assays (Shimizu et al., J. Neurochem. 16:1609-1619 (1969)); and cytosensor microphysiometry assays (Neve et al., J. Biol. Chem. 267:25748-25753 (1992)). Such assays generally are performed using cells that naturally express only a single α-adrenergic receptor subtype, or using transfected cells expressing a single recombinant α-adrenergic receptor subtype. The adrenergic receptor can be a human receptor or homolog thereof having a similar pharmacology. As disclosed herein, RSAT assays were performed using cells transiently transfected with human α-2A (c10 gene); rat α-2B (RNG gene); human α-2C (c4 gene); bovine α-1A; hamster α-1B; and rat α-1D.
(§2) The RSAT assay measures receptor-mediated loss of contact inhibition resulting in selective proliferation of receptor-containing cells in a mixed population of confluent cells. The increase in cell number is assessed with an appropriate detectable marker gene such as β-galactosidase, if desired, in a high throughput or ultra high throughput assay format. Receptors that activate the G protein, Gq, elicit the proliferative response. α-adrenergic receptors, which normally couple to Gi, activate the RSAT response when coexpressed with a hybrid Gq protein containing a Gi receptor recognition domain, designated Gq/i5.
(§3) As an example, an RSAT assay can be performed essentially as follows. NIH-3T3 cells are plated at a density of 2×10^6 cells in 15 cm dishes and maintained in Dulbecco's modified Eagle's medium supplemented with 10% calf serum. One day later, cells are cotransfected by calcium phosphate precipitation with mammalian expression plasmids encoding p-SV-β-galactosidase (5-10 μg), receptor (1-2 μg) and G protein (1-2 μg). Carrier DNA, for example 40 μg salmon sperm DNA, also can be included to increase transfection efficiency. Fresh media is added on the following day; one to two days later, cells are harvested and frozen in 50 assay aliquots. Transfected cells are thawed, and 100 μl of cells added to 100 μl aliquots of compound to be tested, with various concentrations assayed in triplicate, for example, in 96-well plates. Incubation continues for 72 to 96 hours at 37°. After washing with phosphate-buffered saline, β-galactosidase activity is determined by adding 200 μl of chromogenic substrate (3.5 mM O-nitrophenyl-β-D-galactopyranoside/0.5% NP-40 in phosphate buffered saline), incubating overnight at 30°, and measuring optical density at 420 nm. The absorbancy is a measure of enzyme activity, which depends on cell number and reflects receptor-mediated cell proliferation. The EC50 and maximal effect (efficacy) of each drug at each receptor is determined.

[2] = target: T2, human α-2C (c4 gene) (Homo sapiens, UniProt P18825); test: RSAT assay, α-2C receptor; assay type: cell-based; details: for EC50: NA = not active (EC50 ≧ 10,000); for Emax: in brackets under the RSAT activity, printed without % sign, read-out: % efficacy 2C
T2 construct: expressed in transfected cells; host or cells: NIH-3T3
T2 sequence (P18825 1-462): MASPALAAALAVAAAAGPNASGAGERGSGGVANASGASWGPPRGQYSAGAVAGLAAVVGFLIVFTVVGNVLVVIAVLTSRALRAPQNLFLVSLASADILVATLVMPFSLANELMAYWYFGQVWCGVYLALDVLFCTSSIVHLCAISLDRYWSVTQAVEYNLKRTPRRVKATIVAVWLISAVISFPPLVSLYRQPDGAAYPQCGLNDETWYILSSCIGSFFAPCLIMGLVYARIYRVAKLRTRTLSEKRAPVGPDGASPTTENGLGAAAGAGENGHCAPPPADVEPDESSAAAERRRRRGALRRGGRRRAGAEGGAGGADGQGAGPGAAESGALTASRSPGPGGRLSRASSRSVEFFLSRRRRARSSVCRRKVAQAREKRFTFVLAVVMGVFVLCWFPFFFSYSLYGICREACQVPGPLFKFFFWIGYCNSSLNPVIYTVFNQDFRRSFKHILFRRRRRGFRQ
Description: as §1, §2, §3

EC50 [1] [nM] | fold greater activity at the α-2B receptor than the α-2C receptor [1] | Emax [1] [%] | EC50 [2] [nM] | Emax [2] [%] | Compound
24 | about 100 fold | 90 | > 2000 |  | O=C1c2ccccc2CCC1Cc1c[nH]c(=S)[nH]1 (racemic) [Compound 3]
15 | more than 10 fold | 100 | 202 | 0.5 | O=c1[nH]cc(CC2CCc3cc(F)ccc32)[nH]1 (stereo not shown) [Compound 4]
42 |  | 80 | 247 | 0.3 | S=c1[nH]cc(CC2CC=CC2)[nH]1 [Compound 11]

From patent US7345065B2, “Methods and compositions for alleviating pain” (Allergan, Inc., priority 2002, dated 2008)
